Assay results taken from patent US20110144014A1, “CYTOKINE RECEPTOR MODULATORS AND USES THEREOF” (CENTRE HOSPITALIER UNIVERSITAIRE SAINTE-JUSTINE, priority 2005, published 2011).
Read-outs that look alike come from different tables or passages of the source. Where a SMILES comes first, the peptide text is derived from it. Where no end group is shown, it is not given here. [ ]: non-standard residue; d: D form. dOrn = NCCC[C@@H](N)C(=O)O; Orn = NCCC[C@H](N)C(=O)O

How the values were obtained:
IGF-1R = IGF-1R (Homo sapiens, UniProt P08069); assay: IGF-1 induced proliferation of MCF-7 breast carcinoma cells (3H-thymidine); assay type: cell-based; parameters: MCF-7 breast carcinoma cells; endogenous in cells; host or cells: MCF-7; settings: MCF7; MCF-7 (breast cancer) cells; Table 5; read-out: Emax
Experimental: We also tested the effect IGF-1R antagonist peptides on IGF-1 induced proliferation in other cancer cell types (MCF-7 breast carcinoma cells, HepG2 hepatocarcinoma cells, and MDA-MB-231 breast adenocarcinoma cells). Different cancer cells were pre-incubated (45 min.) with different concentrations of peptides prior to stimulation with IGF-1 (50 ng/ml) (37° C.) for 24 hours; fetal calf serum was omitted 24 hours prior to stimulation with IGF-1 to avoid proliferative effects by other mitotic agents. ^3H-thymidine (1 μCi/ml) was then added for 24 hours, after which cells were washed three times with 5% cold TCA and lysed with 0.1N NaOH/0.1% Triton X-100. Radioactivity was measured with a scintillation counter. Experiments were repeated 3 times in duplicates (FIG. 15). […]

[1] = test system: TNBS-induced colon inflammation; assay: TNBS rat model of inflammatory bowel disease; assay type: in vivo
Experimental: Colon inflammation was induced by intra-rectal/colon administration of the hapten trinitrobenzene sulphonic acid (TNBS) on male Sprague-Dawley rats (175-200 g) (Bouma, Nature Rev, 2003; Morris, Gastroenterology, 1989). Animals were anesthetized with isoflurane and TNBS dissolved in 50% ethanol (vol/vol). 120 mg/ml (TNBS) was administered into the colon (total volume of 0.25 ml per rat) using a polyethylene tube (PE50). The cannula was inserted at 8 cm from the anus and kept in place for at least 15 minutes after TNBS administration in order to prevent expulsion of the solution. Two hours prior to TNBS administration, the API-101 derivative API-101.10 (1.1 mg/kg) or 0.9% saline was administered intravenously via the caudal vein (total volume of 0.3 ml). […] A third group (control) was not injected with TNBS. Six days after administration of TNBS, rats were killed by CO2 inhalation. Day 6 was chosen as an endpoint because by day 7 spontaneous tissue regeneration begins and this can mask the therapeutic effect of the tested peptide or peptide derivative. Colon was removed and examined macroscopically (adhesions, ulcerations, discoloration and bleeding) and histologically (neutrophil infiltration, epithelial injury, crypt distortion and ulcerations) (Anthony et al., Int. J. Exp. Path. 76:215-224, 1995; Padol et al., Eur. J. of Gastroenterol. Hepatol. 12:257-265, 2000; Dieleman et al., […], 1997; Torres et al., Digestive Diseases and Sciences 44:2523-2529, 1999). Two animals per group were studied.
Histological transversal sections were cut at 4-6 cm from the proximal anal region and colored with the hematoxylin/eosin method. The TNBS model of inflammatory bowel disease reproduces the inflammatory characteristics and tissue injuries of Crohn's disease (e.g., in humans). Morphologically, the colon of the animals injected with TNBS presented thickening, edema, and discoloration of the intestinal wall indicating a significant inflammation. […] Histological features consisted of neutrophil infiltration into the epithelial layer and crypts, epithelial lining injury as well as the loss of crypts. […] The organization and integrity of the crypts in the API-101.10-treated colon is conserved even if there is still some inflammation (half the dose of API-101.10 was used as compared to the macroscopic analysis experiment).
Colon inflammation was induced by intra-rectal/colon administration of the hapten trinitrobenzene sulphonic acid (TNBS) as described above. Two hours prior to TNBS administration, peptides, peptidomimetics or 0.9% saline were administered intravenously (iv) via the caudal vein (various concentrations of mg/kg/d) (total volume of 0.3 ml). […] A third group (control) was not injected with TNBS. For intermittent administration, fifteen minutes after TNBS administration, 101.10 (0.25-1 mg/kg), 101.107 (0.2 mg/kg), 101.113 (0.05-1 mg/kg) were administered by intermittent intraperitoneal injection (ip). Also, these IL-1R antagonists were given twice a day (BID); Remicade® (anti-TNFα) (10 mg/kg) and dexamethasone (0.75 mg/kg) were administered intraperitoneally but only once a day (qd). The intrarectal administration (ir) of 101.10, 101.113 (1 and 2.5 mg/kg), and 5-ASA (50 mg/kg) was done one hour after TNBS administration, and twice a day, except for 5-ASA which is once a day. Finally, 101.10 (1-5 mg/kg) was also administered orally by gavage (po), twice a day. Forty-eight hours after administration of TNBS, rats were killed by CO2 inhalation. The colon was removed and assessed macroscopically (adhesions, ulcerations, discoloration and bleeding) and histologically (neutrophil infiltration, epithelial injury, crypt distortion and ulcerations). One to seven animals per group were studied, according to treatments. Myeloperoxidase (MPO) activity was measured on tissue lysates.

IL-1R/IL-1RacP = target: T1, IL-1R/IL-1RacP (Homo sapiens, UniProt P14778+Q9NPH3); assay: IL-1β-induced proliferation in TF-1 cells; assay type: cell-based; settings: for activity relative to 101.113: Table 11
T1 construct: TF-1 cells; endogenous in cells; host or cells: TF-1
T1 sequence (P14778 18-569): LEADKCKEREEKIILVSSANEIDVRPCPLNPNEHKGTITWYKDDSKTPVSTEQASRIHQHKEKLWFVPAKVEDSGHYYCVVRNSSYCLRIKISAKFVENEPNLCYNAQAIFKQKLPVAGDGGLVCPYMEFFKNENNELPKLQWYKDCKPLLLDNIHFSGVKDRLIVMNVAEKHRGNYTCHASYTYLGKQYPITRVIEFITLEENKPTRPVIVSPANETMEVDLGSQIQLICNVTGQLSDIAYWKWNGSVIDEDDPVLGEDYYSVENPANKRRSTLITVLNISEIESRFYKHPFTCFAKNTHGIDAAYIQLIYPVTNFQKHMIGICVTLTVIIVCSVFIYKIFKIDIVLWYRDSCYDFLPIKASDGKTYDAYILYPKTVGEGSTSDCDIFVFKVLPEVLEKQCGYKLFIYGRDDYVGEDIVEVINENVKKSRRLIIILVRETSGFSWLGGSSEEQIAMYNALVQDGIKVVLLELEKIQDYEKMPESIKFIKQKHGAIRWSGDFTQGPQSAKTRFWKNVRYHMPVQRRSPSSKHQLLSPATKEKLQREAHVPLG
T1 sequence (Q9NPH3 21-570): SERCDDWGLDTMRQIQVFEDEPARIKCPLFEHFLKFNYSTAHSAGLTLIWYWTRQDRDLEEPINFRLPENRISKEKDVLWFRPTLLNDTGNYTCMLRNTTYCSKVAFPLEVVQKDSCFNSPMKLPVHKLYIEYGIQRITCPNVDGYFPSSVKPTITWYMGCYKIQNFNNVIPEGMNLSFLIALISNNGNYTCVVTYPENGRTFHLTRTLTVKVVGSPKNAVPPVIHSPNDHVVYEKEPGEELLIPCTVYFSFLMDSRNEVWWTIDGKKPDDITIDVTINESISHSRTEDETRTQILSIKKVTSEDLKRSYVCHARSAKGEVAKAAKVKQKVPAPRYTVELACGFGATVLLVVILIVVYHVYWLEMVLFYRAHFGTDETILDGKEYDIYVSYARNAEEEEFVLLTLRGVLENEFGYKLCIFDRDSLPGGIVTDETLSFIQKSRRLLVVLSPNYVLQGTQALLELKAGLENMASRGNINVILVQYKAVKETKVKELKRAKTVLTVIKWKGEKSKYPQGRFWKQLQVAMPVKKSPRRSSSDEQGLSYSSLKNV

[2] = intrarectal administration, 50.0-qd mg/kg/d
[3] = TF-1, IL-1β-induced, Table 10, read-out: Emax (%), proliferation in TF-1 cells (human)
[4] = TF-1, Table 11, read-out: Emax (%), IL-1β-induced TF-1 proliferation
[5] = continuous infusion (ip), 8.0 mg/kg/d
[6] = intermittent injection (ip), 10.0-qd mg/kg/d
[7] = intermittent injection (ip), 0.75-qd mg/kg/d

IGF-1R, sequence (P08069 31-736 limits assumed): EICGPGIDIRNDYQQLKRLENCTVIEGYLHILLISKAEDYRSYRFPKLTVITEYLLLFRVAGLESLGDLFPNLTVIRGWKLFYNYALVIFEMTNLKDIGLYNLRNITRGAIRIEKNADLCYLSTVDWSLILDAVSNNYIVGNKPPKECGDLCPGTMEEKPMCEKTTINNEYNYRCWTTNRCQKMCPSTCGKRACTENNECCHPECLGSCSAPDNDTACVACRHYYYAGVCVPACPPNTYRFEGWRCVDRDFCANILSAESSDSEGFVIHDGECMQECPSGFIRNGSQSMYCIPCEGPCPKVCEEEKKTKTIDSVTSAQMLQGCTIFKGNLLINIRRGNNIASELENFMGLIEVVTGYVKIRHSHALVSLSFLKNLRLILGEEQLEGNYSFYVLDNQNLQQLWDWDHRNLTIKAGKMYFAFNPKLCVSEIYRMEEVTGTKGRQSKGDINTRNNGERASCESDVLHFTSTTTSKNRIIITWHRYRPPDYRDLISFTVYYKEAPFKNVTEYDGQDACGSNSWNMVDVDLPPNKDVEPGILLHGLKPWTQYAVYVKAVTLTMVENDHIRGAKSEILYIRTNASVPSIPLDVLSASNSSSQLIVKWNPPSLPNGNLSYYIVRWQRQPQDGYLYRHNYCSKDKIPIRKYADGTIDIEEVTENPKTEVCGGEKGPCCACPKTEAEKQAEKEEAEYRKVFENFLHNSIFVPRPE
IGF-1R, sequence (P08069 741-1367 limits assumed): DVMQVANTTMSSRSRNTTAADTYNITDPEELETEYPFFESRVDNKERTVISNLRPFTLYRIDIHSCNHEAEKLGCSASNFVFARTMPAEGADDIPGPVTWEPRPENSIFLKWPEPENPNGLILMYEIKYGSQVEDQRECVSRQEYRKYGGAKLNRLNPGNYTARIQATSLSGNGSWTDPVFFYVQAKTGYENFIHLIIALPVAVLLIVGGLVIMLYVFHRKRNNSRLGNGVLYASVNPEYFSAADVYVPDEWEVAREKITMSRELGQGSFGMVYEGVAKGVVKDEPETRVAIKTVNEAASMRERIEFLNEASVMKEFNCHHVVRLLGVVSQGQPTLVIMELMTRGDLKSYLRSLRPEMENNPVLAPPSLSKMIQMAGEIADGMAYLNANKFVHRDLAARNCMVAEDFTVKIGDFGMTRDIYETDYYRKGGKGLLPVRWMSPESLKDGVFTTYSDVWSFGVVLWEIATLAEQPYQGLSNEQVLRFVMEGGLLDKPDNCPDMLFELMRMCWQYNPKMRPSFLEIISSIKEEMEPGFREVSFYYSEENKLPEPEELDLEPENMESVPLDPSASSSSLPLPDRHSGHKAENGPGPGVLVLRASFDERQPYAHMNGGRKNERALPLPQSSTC

Question: For RTVLSNL [APG-206.8, RTVLSNL], which Emax (IGF-1R) is on record?
Answer: The Emax was 100%.

Question: How did the “Histologic evaluation (median score)” value [1, 2] turn out when Nc1ccc(O)c(C(=O)O)c1 [Peptide 5-ASA, 5-ASA, reference compound] was run?
Answer: The value was 3.3 median score.

Question: What about the “MPO (% of TNBS + Saline)” value [1, 2] of the same compound?
Answer: Its value is 49 % of TNBS + Saline.

Question: And the “Macroscopic evaluation (median score)” value [1, 2]?
Answer: The value was 1.5 median score.

Question: Which Emax (IL-1R/IL-1RacP; [3]) does the source give for CC(C)C[C@@H](NC(=O)[C@@H](CCC(=O)O)NC(=O)[C@H]1CCCN1C(=O)[C@H](NC(=O)[C@@H](Cc1ccc(O)cc1)NC(=O)[C@H](N)CCCN)[C@H](C)O)C(=O)N[C@H](C)C(=O)O [API-101.115, XYTPELA (X = Ornithine)] (H-[dOrn][dY][dT][dP][dE][dL][dA]-OH) here?
Answer: The Emax was 100%.

Question: For RFVPELA [API-101.127, RFVPELA], which Emax (IL-1R/IL-1RacP; [4]) is on record?
Answer: Its Emax is < 30%.

Question: Which Emax (IL-1R/IL-1RacP; [3]) does the source give for CC(C)C[C@@H](NC(=O)[C@@H](CCC(=O)O)NC(=O)[C@H]1CCCN1C(=O)[C@H](NC(=O)[C@@H](Cc1c[nH]c2ccccc12)NC(=O)[C@H](N)CCCNC(=N)N)[C@H](C)O)C(=O)N[C@H](C)C(=O)O [API-101.116, RWTPELA] here?
Answer: The Emax was 75%.

Question: For CC(C)C[C@H](NC(=O)[C@H](CCC(=O)O)NC(=O)[C@@H]1CCCN1C(=O)[C@@H](NC(=O)[C@H](Cc1ccc(O)cc1)NC(=O)[C@@H](N)CCCN)[C@@H](C)O)C(=O)O [API-101.126, XYTPEL (X = Ornithine)] (H-[Orn]YTPEL-OH), which Emax (IL-1R/IL-1RacP; [4]) is on record?
Answer: The Emax was 0%.

Question: CC(C)C[C@@H](NC(=O)[C@@H](CCC(=O)O)NC(=O)[C@H]1CCCN1C(=O)[C@H](NC(=O)[C@@H](Cc1ccc(O)cc1)NC(=O)[C@H](N)CCCNC(=N)N)[C@H](C)O)C(=O)O [API-101.113, RYTPEL] was tested. Which Emax (IL-1R/IL-1RacP; [3]) did it give?
Answer: The Emax was 100%.

Question: With CC(C)C[C@@H](NC(=O)[C@@H](CCC(=O)O)NC(=O)[C@H]1CCCN1C(=O)[C@H](NC(=O)[C@@H](Cc1ccc(O)cc1)NC(=O)[C@@H](N)CCCNC(=N)N)[C@H](C)O)C(=O)O [API-101.135, *RYTPEL] as the compound, how does the Emax (IL-1R/IL-1RacP; [4]) read?
Answer: Its Emax is 63%.

Question: Which Emax (IL-1R/IL-1RacP; [4]) does the source give for CC(C)C[C@@H](NC(=O)[C@@H](CCC(=O)O)NC(=O)[C@H]1CCCN1C(=O)[C@H](NC(=O)[C@@H](Cc1ccccc1)NC(=O)[C@H](N)CCCNC(=N)N)[C@H](C)O)C(=O)O [API-101.132, RFTPEL] (H-[dR][dF][dT][dP][dE][dL]-OH; N-terminus and C-terminus assumed) here?
Answer: Its Emax is 35%.

Question: And the “activity relative to 101.113” value (IL-1R/IL-1RacP)?
Answer: The value was “relatively decreased”.

Question: Which Emax (IL-1R/IL-1RacP; [4]) does the source give for CC(C)C[C@@H](NC(=O)[C@@H](CCC(=O)O)NC(=O)[C@H]1CCCN1C(=O)[C@H](NC(=O)[C@@H](Cc1c[nH]c2ccccc12)NC(=O)[C@H](N)CCCNC(=N)N)[C@H](C)O)C(=O)O [API-101.128, RWTPEL] (H-[dR][dW][dT][dP][dE][dL]-OH; N-terminus and C-terminus assumed) here?
Answer: The Emax was 100%.

Question: And the “activity relative to 101.113” value (IL-1R/IL-1RacP)?
Answer: The value was “relatively decreased”.

Question: Which “Histologic evaluation (median score)” value [1, 5] does the source give for “Kineret: Amgen drug, a selective blocker of IL-1; commercial analog of IL-1R antagonist (IL-Ra) [reference compound]” here?
Answer: Its value is 2 (Small ulcer (<5 crypts)).

Question: What about the “MPO (% of TNBS + Saline)” value [1, 5] of the same compound?
Answer: The value was 63 % of TNBS + Saline.

Question: With KYTPEL [API-101.133, KYTPEL] as the compound, how does the Emax (IL-1R/IL-1RacP; [4]) read?
Answer: The Emax was < 10%.

Question: Which “Histologic evaluation (median score)” value [1, 6] does the source give for “Remicade ®: anti-TNFα [reference compound]” here?
Answer: The value was 2.5 median score.

Question: What about the “MPO (% of TNBS + Saline)” value [1, 6] of the same compound?
Answer: Its value is 88 ± 41 % of TNBS + Saline.

Question: And the “Macroscopic evaluation (median score)” value [1, 6]?
Answer: The value was 0.5 median score.

Question: With C[C@@H]1C[C@H]2[C@@H]3CCC4=CC(=O)C=C[C@]4(C)[C@@]3(F)[C@@H](O)C[C@]2(C)[C@@]1(O)C(=O)CO [Dexamethasone, dexamethasone, reference compound] as the compound, how does the “Histologic evaluation (median score)” value [1, 7] read?
Answer: Its value is 3 (Medium ulcer (5-10 crypts)).

Question: What about the “MPO (% of TNBS + Saline)” value [1, 7] of the same compound?
Answer: The value was 60 % of TNBS + Saline.

Question: And the “Macroscopic evaluation (median score)” value [1, 7]?
Answer: Its value is 0.87 median score.

Question: What does the source list for CC(C)C[C@@H](NC(=O)[C@@H](CCC(=O)O)NC(=O)[C@H]1CCCN1C(=O)[C@H](NC(=O)[C@@H](Cc1ccc(O)cc1)NC(=O)[C@H](N)CCCNC(N)=O)[C@H](C)O)C(=O)O [API-101.134, XYTPEL (X = Citrulline)]?
Answer: Emax (IL-1R/IL-1RacP; [4]): 10%; activity relative to 101.113 (IL-1R/IL-1RacP): little or no activity
